This note sets out measurements from US7186831B2, “5-halo-2-alkyl[1,2,4]triazolo[1,5-a]pyrimidin-7-amines” (priority 2001, dated 2007).

One data set can be described thus: log P by HPLC. As to conditions: EEC directive 79/831 Annex V. A8 by HPLC (gradient method, acetonitrile/0.1% aqueous phosphoric acid). The data set is classed as physicochemical.
As to `CC(Nc1c(-c2ccc(F)cc2Cl)c(Cl)nc2nc(C3CC3)nn12)C(F)(F)F` (racemic) [compound 505], the logP stood at 3.75.
In the case of `CC1=CCCN(c2c(-c3c(F)cccc3F)c(Cl)nc3nc(C)nn23)C1` [compound 317], the logP came to 3.39.
On to `CC(C)Nc1c(-c2c(F)cc(F)cc2F)c(Cl)nc2nc(C3CC3)nn12` [compound 464], for which the logP worked out at 3.35.
Same read-out and setting: for `Cc1nc2nc(Cl)c(-c3ccc(F)cc3F)c(N3CCC4(CC3)OCCO4)n2n1` [compound 284] the value was 2.68.
The same measure, in the same setting: next, `Cc1nc2nc(Cl)c(-c3c(F)cccc3F)c(NCC(F)(F)F)n2n1` [compound 424]: 2.56; `Cc1nc2nc(Cl)c(-c3c(F)cccc3F)c(N3CC=CCC3)n2n1` [compound 308]: 3.01; `C=C(C)CN(CC)c1c(-c2c(F)cc(F)cc2F)c(Cl)nc2nc(C3CC3)nn12` [compound 448]: 4.49.
`CCCN(CC1CCCO1)c1c(-c2c(F)cccc2F)c(Cl)nc2nc(C)nn12` (centres unmarked) [compound 347] registered a logP of 3.39.
The same measure, in the same setting: for `Cc1nc2nc(Cl)c(-c3ccc(F)cc3F)c(NC(C)C(F)(F)F)n2n1` (single isomer, unassigned) [compound 359] the value was 2.95.
`CCCN(CC1CCCO1)c1c(-c2c(F)cccc2Cl)c(Cl)nc2nc(C)nn12` (centres unmarked) [compound 277] showed a logP of 3.72.
Same read-out and setting: next, `Cc1nc2nc(Cl)c(-c3ccc(F)cc3F)c(N3CCC(F)CC3)n2n1` [compound 454]: 2.96; `CCC(C)Nc1c(-c2ccccc2Cl)c(Cl)nc2nc(C3CC3)nn12` (centres unmarked) [compound 494]: 3.76.
Still for that read-out and setting: for `C=C(C)CNc1c(-c2ccccc2Cl)c(Cl)nc2nc(C3CC3)nn12` [compound 495] the value was 3.41.
The same measure, in the same setting: next, `Fc1cc(F)c(-c2c(Cl)nc3nc(C4CC4)nn3c2NCC2CC2)c(F)c1` [compound 465]: 3.43; `Cc1nc2nc(Cl)c(-c3c(F)cccc3F)c(N(O)C(C)C)n2n1` [compound 426]: 2.52.
Compound `Cc1nc2nc(Cl)c(-c3ccc(F)cc3F)c(NC3CCCC3)n2n1` [compound 405] showed a logP of 3.24.
For the compound `Cc1nc2nc(Cl)c(-c3ccc(F)cc3F)c(NC3CCCCC3C(F)(F)F)n2n1` (centres unmarked) [compound 408], the logP worked out at 3.56.
Still for that read-out and setting: for `Clc1ccccc1-c1c(Cl)nc2nc(C3CC3)nn2c1N1CCCCN1` [compound 488] the value was 3.39; for `Cc1nc2nc(Cl)c(-c3c(F)cccc3F)c(N(C)CC(C)C)n2n1` [compound 335], 3.37.
Same read-out and setting: for `Cc1nc2nc(Cl)c(-c3ccc(F)cc3F)c(N3CC=CCC3)n2n1` [compound 283] the value was 3.11.
On the same count and under the same terms, next, `Cc1nc2nc(Cl)c(-c3ccccc3F)c(NOC3CCCCO3)n2n1` (centres unmarked) [compound 375]: 2.59; `Cc1nc2nc(Cl)c(-c3c(F)cccc3F)c(N3CCN(C)CC3)n2n1` [compound 324]: 1.12.
For the compound `FC(F)(F)C1CCCN1c1c(-c2ccccc2Cl)c(Cl)nc2nc(C3CC3)nn12` (centres unmarked) [compound 501], the logP came out at 4.41.

Still in this data set, the particulars now being: HPLC.
`Fc1cc(F)c(-c2c(Cl)nc3nc(C(F)(F)F)nn3c2N2CCC(C(F)(F)F)CC2)c(F)c1` [Example 1]: the chromatographic logP was found to be 4.43.

The data set is the same for the next values; noted with them: HPLC, gradient method, acetonitrile/0.1% aqueous phosphoric acid; EEC directive 79/831 Annex V. A8.
`CCCNc1c(-c2c(F)cc(F)cc2F)c(Cl)nc2nc(C(F)(F)F)nn12` [compound 106] came in with a logP of 3.82.
For the compound `C=CCN(CC)c1c(-c2c(F)cccc2F)c(Cl)nc2nc(C)nn12` [compound 568], the logP stood at 3.3.
The same measure, in the same setting: for `Fc1cccc(F)c1-c1c(Cl)nc2nc(C3CC3)nn2c1N1CC=CCO1` [compound 770] the value was 3.32.
With `CCNc1c(-c2ccc(F)cc2F)c(Cl)nc2nc(C)nn12` [compound 687], the logP is reported as 3.08.
In the case of `Fc1ccc(-c2c(Cl)nc3nc(C4CC4)nn3c2NCC(F)(F)F)c(F)c1` [compound 714], the lipophilicity (logP) was determined as 3.17.
On the same count and under the same terms, for `CC1C=CC(C)N1c1c(-c2ccccc2Cl)c(Cl)nc2nc(C3CC3)nn12` (centres unmarked) [compound 580] the value was 4.19; for `Fc1cccc(Cl)c1-c1c(Cl)nc2nc(C3CC3)nn2c1N1CCCC1` [compound 704], 3.55.
Still for that read-out and setting: next, `CCN(CCOC)c1c(-c2ccc(F)cc2F)c(Cl)nc2nc(C(F)(F)F)nn12` [compound 558]: 4.03; `Cc1nc2nc(Cl)c(-c3c(F)cc(F)cc3F)c(N3CCCCC3)n2n1` [compound 60]: 3.43; `CN(CC#N)c1c(-c2ccc(F)cc2F)c(Cl)nc2nc(C3CC3)nn12` [compound 719]: 2.79.
The same measure, in the same setting: for `Cc1nc2nc(Cl)c(-c3ccccc3Cl)c(N3CCCC3C)n2n1` (centres unmarked) [compound 226] the value was 3.27.
In the case of `Cc1nc2nc(Cl)c(-c3c(F)cccc3F)c(NC3CCC(C(F)(F)F)CC3)n2n1` (centres unmarked) [compound 190], the logP is 3.39.
Same read-out and setting: for `CCCN(CC1CCCO1)c1c(-c2ccc(F)cc2F)c(Cl)nc2nc(C(F)(F)F)nn12` (centres unmarked) [compound 552] the value was 4.77; for `Fc1ccc(-c2c(Cl)nc3nc(C4CC4)nn3c2N2CCCC2C(F)(F)F)c(F)c1` (centres unmarked) [compound 729], 4.14; for `Cc1nc2nc(Cl)c(-c3c(F)cccc3Cl)c(N(N)CC(C)C)n2n1` [compound 130], 3.12.
In the case of `CCc1nc2nc(Cl)c(-c3c(F)cc(F)cc3F)c(NCCC(F)(F)F)n2n1` [compound 6], the logP came to 3.18.
The same measure, in the same setting: for `Cc1nc2nc(Cl)c(-c3c(F)cc(F)cc3F)c(N3CCSCC3)n2n1` [compound 66] the value was 3.09.
Still for that read-out and setting: for `Fc1ccc(-c2c(Cl)nc3nc(C4CC4)nn3c2N2CCOCC2)c(Cl)c1` [compound 636] the value was 3.18; for `COCCN(C)c1c(-c2ccc(F)cc2Cl)c(Cl)nc2nc(C3CC3)nn12` [compound 628], 3.46.
Take `CC(C)CN(C)c1c(-c2c(F)cccc2F)c(Cl)nc2nc(C3CC3)nn12` [compound 676]: the logP is recorded as 4.08.
Same read-out and setting: for `CC(C)C(C)Nc1c(-c2ccc(Cl)cc2Cl)c(Cl)nc2nc(C3CC3)nn12` (single isomer, unassigned) [compound 757] the value was 4.72; for `Cc1nc2nc(Cl)c(-c3c(F)cccc3F)c(NC3CCCC(C(F)(F)F)C3)n2n1` (centres unmarked) [compound 188], 3.37.
On the same count and under the same terms, for `Cc1nc2nc(Cl)c(-c3c(F)cc(F)cc3F)c(N3CCC(C)CC3)n2n1` [compound 166] the value was 3.9; for `Cc1nc2nc(Cl)c(-c3c(F)cc(F)cc3F)c(N3C(C)C=CC3C)n2n1` (centres unmarked) [compound 117], 3.52.
On to `Cc1nc2nc(Cl)c(-c3c(F)cccc3F)c(NOCc3ccc(Cl)cc3)n2n1` [compound 138], for which the logP worked out at 3.23.
On the same count and under the same terms, for `Cc1nc2nc(Cl)c(-c3ccccc3Cl)c(NC(C)C(C)C)n2n1` (centres unmarked) [compound 696] the value was 3.46; for `Cc1nc2nc(Cl)c(-c3c(F)cccc3F)c(N(C)CCC#N)n2n1` [compound 563], 2.17.
The same measure, in the same setting: for `CCOC(=O)CN(CC)c1c(-c2ccccc2Cl)c(Cl)nc2nc(C)nn12` [compound 240] the value was 3.11; for `Fc1ccc(-c2c(Cl)nc3nc(C4CC4)nn3c2N2CCCC2)c(F)c1` [compound 606], 3.36; for `CC(Nc1c(-c2c(F)cc(F)cc2F)c(Cl)nc2nc(C(C)(C)C)nn12)C(F)(F)F` (centres unmarked) [compound 9], 4.24.
Same read-out and setting: next, `CCOC(=O)CN(c1c(-c2ccc(F)cc2F)c(Cl)nc2nc(C(F)(F)F)nn12)C1CC1` [compound 554]: 4.28.
`CCN(CCOC)c1c(-c2ccc(F)cc2F)c(Cl)nc2nc(C)nn12` [compound 128] displayed a logP of 2.84.
The compound `Cc1nc2nc(Cl)c(-c3c(F)cc(F)cc3F)c(N3CCC(O)C3)n2n1` (centres unmarked) [compound 98] gave a logP of 1.85.
The same measure, in the same setting: for `Cc1nc2nc(Cl)c(-c3ccc(Cl)cc3Cl)c(NCC(C)C)n2n1` [compound 789] the value was 3.68; for `COC(=O)C(Nc1c(-c2c(F)cc(F)cc2F)c(Cl)nc2nc(C)nn12)C(C)C` (centres unmarked) [compound 118], 3.11; for `CCN(CCOC)c1c(-c2c(F)cc(F)cc2F)c(Cl)nc2nc(C)nn12` [compound 29], 2.93.
For `Fc1cccc(Cl)c1-c1c(Cl)nc2nc(C3CC3)nn2c1N1CCC(F)CC1` [compound 707], the logP is 3.63.
On to `CC(=O)C1CCN(c2c(-c3ccc(F)cc3F)c(Cl)nc3nc(C4CC4)nn23)CC1` [compound 730], for which the logP is 3.07.
`CN(C)CCN(C)c1c(-c2ccc(F)cc2F)c(Cl)nc2nc(C3CC3)nn12` [compound 661] displayed a logP of 1.56.
In the case of `Cc1nc2nc(Cl)c(-c3c(F)cccc3F)c(NC3CC3)n2n1` [compound 178], the logP stood at 2.28.
The compound `CCN(Cc1ccco1)c1c(-c2ccc(F)cc2F)c(Cl)nc2nc(C(F)(F)F)nn12` [compound 549] returned a logP of 4.42.
The same measure, in the same setting: next, `Cc1nc2nc(Cl)c(-c3ccccc3Cl)c(N(C)CC(C)C)n2n1` [compound 221]: 3.65; `C#CCN(C)c1c(-c2c(F)cc(F)cc2F)c(Cl)nc2nc(C)nn12` [compound 149]: 2.77; `C#CCN(C)c1c(-c2ccccc2Cl)c(Cl)nc2nc(C)nn12` [compound 237]: 2.75.
On the same count and under the same terms, next, `Cc1nc2nc(Cl)c(-c3c(F)cc(F)cc3F)c(N3CC(C)OC(C)C3)n2n1` (centres unmarked) [compound 58]: 3; `COCCNc1c(-c2c(F)cc(F)cc2F)c(Cl)nc2nc(C)nn12` [compound 64]: 2.34; `CCN(Cc1ccco1)c1c(-c2c(F)cc(F)cc2F)c(Cl)nc2nc(C)nn12` [compound 158]: 3.55.
In turn, `Cc1nc2nc(Cl)c(-c3ccc(Cl)cc3Cl)c(N3OC4CCC3C4)n2n1` (centres unmarked) [compound 780] displayed a logP of 3.41.
On the same count and under the same terms, next, `COCCN(C)c1c(-c2ccc(F)cc2F)c(Cl)nc2nc(C(F)(F)F)nn12` [compound 545]: 3.73.
The same measure, in the same setting: for `Cc1ccccc1Nc1c(-c2ccc(F)cc2F)c(Cl)nc2nc(C(F)(F)F)nn12` [compound 811] the value was 3.99.
